Structures are written as SMILES.

In general, inhibition refers to the drop in the measured response relative to a control, in per cent.

The subject of series [1] is platelet aggregation. Description: Platelet aggregation-inhibiting activity in vitro (collagen, platelet-rich plasma). In kind it is cell-based, male SD rats. The settings on record: final concentration 100 μg/ml, rat PRP, 37° C. Here is the method:
(§1) Blood was collected from the abdominal aorta of male SD rats (body weight: 250-300 g) which were anesthetized with ether. Nine volumes of said blood were mixed with one volume of an aqueous 3.8% (w/v) trisodium citrate solution, and the mixture was centrifuged at 500×g for 5 minutes to give platelet-rich plasma (hereinafter referred to as "PRP") as the supernatant solution. The bottom layer was further centrifuged at 1000×g for 10 minutes to give platelet-poor plasma (hereinafter referred to as "PPP") as the supernatant solution. PRP was diluted with PPP so that the blood platelet count was 8-10×10^5 cells/mm^3.Then, a mixture of 200 μl of said diluted PRP and 25 μl of a test compound solution (final concentration: 100 μg/ml) was introduced into a glass cell of SIENCO aggregometer (Sienco Inc., Morrison, Colo. Model DP-247-D). After the mixture was stirred at 1100 rpm at 37° C. for 2 minutes, 25 μl of a collagen solution (prepared by Holmsen's method described in Biochim. Biophys. Acta, Vol. 186, page 254(1969)) was added thereto, and the percentage inhibition of platelet aggregation was calculated in accordance with the following formula from the degree of the platelet aggregation which was estimated by Born's method (Nature, 194, page 927(1962)). [formula]

Series [2] deals with platelet aggregation. Kind of series: Platelet aggregation-inhibiting activity after oral administration (ex vivo). The class given is in vivo. To be noted: Rattus norvegicus, 1 h, 100 mg/kg oral, blood collected one hour after administration, SD rats, read-out: Percentage inhibition of platelet aggregation (%). Here is the method: as §1, with “PRP was diluted with PPP so that the blood platelet count was 8-10×10^5 cells/mm^3.Then, a mixture of 200 μl of said diluted PRP and 25 μl of a test compound solution (final concentration: 100 μg/ml) was introduced into a glass cell of SIENCO aggregometer (Sienco Inc., Morrison, Colo. Model DP-247-D).” left out, “[formula]” left out
A test compound was suspended in a solution containing 0.25% of carboxymethylcellulose (sodium salt) and 0.01% of Tween 80, and the suspension was administered orally to make SD rats (a group of 4 rats). […] Thereafter, said blood was treated in the same manner as described in Experiment 2, and the percentage inhibition of platelet aggregation was calculated in accordance with the following formula: [formula]

For series [3], the system named is serum cholesterol. Description: Hypolipidemic activity: decrease in serum cholesterol. In kind it is in vivo. To be noted: 50 mg % in diet, one week, male SD rats. Here is the method: (§2) A test compound (50 mg %) was added to a commercial diet, and male SD rats (body weight: 120-140 g, a group of 5 rats) were fed with the diet ad libitum for one week. After the experimental period, blood was collected from the tail vein of the rats under ether anesthesia. Then, liver was excised from the rats and the weight thereof was measured. On the other hand, serum cholesterol and serum triglyceride were measured according to the methods of Zak (Amer. J. Clin. Pathol., Vol. 24, page 1307(1954)) and Van Handel-Zilversmit (J. Lab. & Clin. Med., Vol. 50, page 152(1957)), respectively. Based on the results obtained above, the decrease (%) in serum cholesterol or triglyceride and increase (%) in liver weight were calculated by the following formulae: [formula]

Series [4] relates to serum triglyceride. Description: Hypolipidemic activity: decrease in serum triglyceride. In kind it is in vivo. The settings on record: 50 mg % in diet, one week, male SD rats. How it is done: as §2
The subject of series [5] is liver. Kind of series: Increase in liver weight (hypolipidemic experiment). In kind it is in vivo. The settings on record: 50 mg % in diet, one week, male SD rats. How it is done: as §2
Series [6] concerns mice. Kind of series: Acute oral toxicity in mice. In kind it is in vivo. The settings on record: 1000 mg/kg oral, 7 days after administration. From the text: The compound (I) (R^2 =H) of the present invention can be used for pharmaceutical use in the form of either a free acid or a pharmaceutically acceptable salt thereof. Pharmaceutically acceptable salts of the compound (I) (R^2 =H) include, for example, alkali metal salts such as sodium and potassium salts; alkaline earth metal salts such as calcium and magnesium salts; salts thereof with amino acids such as lysine, ornithine, arginine and histidine salts; and ammonium salt. Such pharmaceutically acceptable salts may be prepared, for example, by neutralizing the free acid with a stoichiometrically equimolar amount of a base such as an alkali metal hydroxide, an alkaline earth metal hydroxide, ammonia or a basic amino acid. The compound (I) and a salt thereof can be administered either orally or parenterally. For oral administration, the compound (I) or a salt thereof may be used in the form of tablets, powder, capsules, granules and the like. Known medicinal excipients such as calcium carbonate, calcium phosphate, corn starch, potato starch, sugar, lactose, talc, magnesium stearate and so forth may be used in making these pharmaceutical preparations. Alternatively, the compound (I) or a salt thereof may be used for oral administration in the form of aqueous or oily suspensions, solutions, syrps or elixirs. […]

`CC(C)c1oc(-c2ccccc2)nc1CC(=O)O` [2-(2-phenyl-5-isopropyl-4-oxazolyl)acetic acid] had an inhibition at 100 µg/mL in series [1] of at least 10%. Besides, in series [2], the inhibition at 100 mg/kg came to 97 ± 2%.
Take `CC(C)c1oc(-c2ccc(Cl)cc2)nc1CC(=O)O` [2-[2-(4-chlorophenyl)-5-isopropyl-4-oxazolyl]acetic acid]: in series [3], the “Decrease (%) in serum cholesterol” value came to 12%. Moreover, the “Decrease (%) in serum triglyceride” value in series [4] is recorded as 39%. This compound yielded an inhibition at 100 µg/mL in series [1] of at least 10%.
With `Cc1oc(-c2ccc(Cl)cc2)nc1CC(=O)O` [2-[2-(4-chlorophenyl)-5-methyl-4-oxazolyl]acetic acid], in series [3], the “Decrease (%) in serum cholesterol” value came to 14%. Moreover, the “Decrease (%) in serum triglyceride” value in series [4] is 48%.
For `CCCCCc1oc(-c2ccc(Cl)cc2)nc1CC(=O)O` [2-[2-(4-chlorophenyl)-5-n-pentyl-4-oxazolyl]acetic acid], in that order: 19% and 60%.
With `CC(C)Cc1oc(-c2ccc(F)cc2)nc1CC(=O)O` [2-[2-(4-fluorophenyl)-5-isobutyl-4-oxazolyl]acetic acid], the “Decrease (%) in serum cholesterol” value in series [3] is listed as 11%. Also, the “Decrease (%) in serum triglyceride” value in series [4] stood at 51%.
On to `CC(C)c1oc(-c2ccc(F)cc2)nc1CC(=O)O` [2-[2-(4-fluorophenyl)-5-isopropyl-4-oxazolyl]acetic acid], for which the “Decrease (%) in serum cholesterol” value in series [3] came out at 21%. Further, the “Decrease (%) in serum triglyceride” value in series [4] came out at 42%. This compound yielded an inhibition at 100 µg/mL in series [1] of at least 10%.
Take `CCOC(=O)C(C)(C)Oc1ccc(Cl)cc1` [Clofibrate, 2-(4-chlorophenoxy)-2-methylpropanoic acid ethyl ester, reference compound]: the “Decrease (%) in serum cholesterol” value in series [3] came to 15%. Moreover, in series [4], the “Decrease (%) in serum triglyceride” value was found to be 16%. Further, the “increase (%) in liver weight” value in series [5] stood at 12%. For the same compound, in series [1], the inhibition at 100 µg/mL is below 10%. Moreover, the inhibition at 100 mg/kg in series [2] came out at 53 ± 19%.
In the case of `CCOC(=O)Cc1nc(-c2ccc(Cl)cc2)oc1CC(C)C` [ethyl 2-[2-(4-chlorophenyl)-5-isobutyl-4-oxazolyl]acetate], the inhibition at 100 µg/mL in series [1] was at least 10%.
As for `CCOC(=O)Cc1nc(-c2ccc(Cl)cc2)oc1C(C)C` [ethyl 2-[2-(4-chlorophenyl)-5-isopropyl-4-oxazolyl]acetate], in series [3], the “Decrease (%) in serum cholesterol” value is given as 18%. Moreover, the “Decrease (%) in serum triglyceride” value in series [4] was 55%. In addition, in series [1], the inhibition at 100 µg/mL is at least 10%.
For the compound `CCOC(=O)Cc1nc(-c2ccc(Cl)cc2)oc1C` [ethyl 2-[2-(4-chlorophenyl)-5-methyl-4-oxazolyl]acetate], the “Decrease (%) in serum cholesterol” value in series [3] was 19%. The “Decrease (%) in serum triglyceride” value in series [4] was 36%. The mortality result in series [6] is recorded as “no mouse dies”.
As to `CCCCCc1oc(-c2ccc(Cl)cc2)nc1CC(=O)OCC` [ethyl 2-[2-(4-chlorophenyl)-5-n-pentyl-4-oxazolyl]acetate], the “Decrease (%) in serum cholesterol” value in series [3] is recorded as 15%. For the same compound, in series [4], the “Decrease (%) in serum triglyceride” value amounted to 52%. The mortality entry in series [6] is recorded as “no mouse dies”.
For the compound `CCOC(=O)Cc1nc(-c2ccc(F)cc2)oc1CC(C)C` [ethyl 2-[2-(4-fluorophenyl)-5-isobutyl-4-oxazolyl]acetate], the “Decrease (%) in serum cholesterol” value in series [3] came to 13%. The “Decrease (%) in serum triglyceride” value in series [4] is listed as 66%. Moreover, in series [1], the inhibition at 100 µg/mL was at least 10%.
In the case of `CCOC(=O)Cc1nc(-c2ccc(F)cc2)oc1C(C)C` [ethyl 2-[2-(4-fluorophenyl)-5-isopropyl-4-oxazolyl]acetate], the “Decrease (%) in serum cholesterol” value in series [3] is reported as 23%. In series [4], the “Decrease (%) in serum triglyceride” value stood at 33%. In addition, in series [1], the inhibition at 100 µg/mL is at least 10%.

Values taken from patent US4535089A, “Alkyloxazolylacetic acid derivative for the treatment of hyperlipidemia” (Tanabe Seiyaku Co., Ltd., priority 1982, dated 1985).
